Assays:
[1] = biological target: T1, Phospho-EGFR (Tyr1068) in A431 cells (Homo sapiens, UniProt P00533); test: HTRF pEGFR/total EGFR in A431 cells with EGF stimulation; format: cell-based; settings: ratio pEGFR/total EGFR, compound 2.5 hours then 100 ng/ml EGF 30 mins
T1 construct: endogenous in cells; host or cells: A431
Procedure, shortened: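 Values are pEGFR(Tyr1068)/total EGFR HTRF ratios (665/620 nm) given as percent of the 0 μM control. Adhered A431 cells (20,000 per well, 24 h) had 2.5 h compound pretreatment in 0.1% DMSO, then 30 min of 100 ng/ml EGF before lysis.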

[2] = biological target: T2, Phospho-EGFR (Tyr1068) in H1975 cells (Homo sapiens, UniProt P00533, L858R/T790M); test: HTRF pEGFR/total EGFR in H1975 cells; format: cell-based; settings: ratio pEGFR/total EGFR, compound 3 hours
T2 construct: host or cells: H1975
T2 sequence (P00533 25-1210 T790M/L858R): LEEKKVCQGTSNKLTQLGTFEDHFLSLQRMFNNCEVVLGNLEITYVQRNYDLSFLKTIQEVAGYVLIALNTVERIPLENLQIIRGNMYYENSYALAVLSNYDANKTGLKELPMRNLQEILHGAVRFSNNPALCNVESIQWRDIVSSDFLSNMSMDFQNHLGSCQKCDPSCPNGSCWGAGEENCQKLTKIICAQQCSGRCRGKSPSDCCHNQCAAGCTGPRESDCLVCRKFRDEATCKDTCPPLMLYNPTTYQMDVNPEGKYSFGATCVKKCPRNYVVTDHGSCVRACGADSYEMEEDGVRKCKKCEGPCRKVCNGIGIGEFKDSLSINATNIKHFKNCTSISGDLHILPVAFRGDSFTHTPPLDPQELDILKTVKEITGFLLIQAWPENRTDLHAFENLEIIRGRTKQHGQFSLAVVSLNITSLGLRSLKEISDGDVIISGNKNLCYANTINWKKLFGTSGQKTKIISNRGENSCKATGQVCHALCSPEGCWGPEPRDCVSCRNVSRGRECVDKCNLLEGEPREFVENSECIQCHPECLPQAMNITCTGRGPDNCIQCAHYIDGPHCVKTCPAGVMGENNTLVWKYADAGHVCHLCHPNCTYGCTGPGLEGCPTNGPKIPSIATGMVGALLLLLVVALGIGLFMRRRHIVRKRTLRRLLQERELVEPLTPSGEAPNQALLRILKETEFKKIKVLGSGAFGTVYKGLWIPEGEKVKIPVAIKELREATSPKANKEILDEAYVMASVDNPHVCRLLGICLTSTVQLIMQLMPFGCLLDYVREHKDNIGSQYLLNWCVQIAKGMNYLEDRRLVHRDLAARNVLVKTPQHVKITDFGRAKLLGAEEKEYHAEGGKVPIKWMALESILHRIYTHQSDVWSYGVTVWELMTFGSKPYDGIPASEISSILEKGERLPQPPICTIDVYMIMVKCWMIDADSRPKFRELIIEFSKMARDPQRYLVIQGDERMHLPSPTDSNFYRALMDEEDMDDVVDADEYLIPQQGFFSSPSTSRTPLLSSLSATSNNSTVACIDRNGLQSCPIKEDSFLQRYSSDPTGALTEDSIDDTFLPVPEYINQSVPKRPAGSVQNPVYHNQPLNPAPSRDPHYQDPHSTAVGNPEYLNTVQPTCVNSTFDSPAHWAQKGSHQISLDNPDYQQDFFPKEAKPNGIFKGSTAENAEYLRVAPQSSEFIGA
Procedure, shortened: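 Readout is the phospho-EGFR (Tyr1068) to total EGFR HTRF ratio, expressed relative to 0 μM control. Adhered H1975 cells were exposed to compound for 3 hours at 0.1% DMSO, duplicate wells, then lysed for 30 min at room temperature before two-wavelength fluorescence reading.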

[3] = biological target: CtermHisTag-mEGFR Wild type (Homo sapiens, UniProt P00533); test: biochemical
CtermHisTag-mEGFR Wild type, sequence (P00533 whole entry): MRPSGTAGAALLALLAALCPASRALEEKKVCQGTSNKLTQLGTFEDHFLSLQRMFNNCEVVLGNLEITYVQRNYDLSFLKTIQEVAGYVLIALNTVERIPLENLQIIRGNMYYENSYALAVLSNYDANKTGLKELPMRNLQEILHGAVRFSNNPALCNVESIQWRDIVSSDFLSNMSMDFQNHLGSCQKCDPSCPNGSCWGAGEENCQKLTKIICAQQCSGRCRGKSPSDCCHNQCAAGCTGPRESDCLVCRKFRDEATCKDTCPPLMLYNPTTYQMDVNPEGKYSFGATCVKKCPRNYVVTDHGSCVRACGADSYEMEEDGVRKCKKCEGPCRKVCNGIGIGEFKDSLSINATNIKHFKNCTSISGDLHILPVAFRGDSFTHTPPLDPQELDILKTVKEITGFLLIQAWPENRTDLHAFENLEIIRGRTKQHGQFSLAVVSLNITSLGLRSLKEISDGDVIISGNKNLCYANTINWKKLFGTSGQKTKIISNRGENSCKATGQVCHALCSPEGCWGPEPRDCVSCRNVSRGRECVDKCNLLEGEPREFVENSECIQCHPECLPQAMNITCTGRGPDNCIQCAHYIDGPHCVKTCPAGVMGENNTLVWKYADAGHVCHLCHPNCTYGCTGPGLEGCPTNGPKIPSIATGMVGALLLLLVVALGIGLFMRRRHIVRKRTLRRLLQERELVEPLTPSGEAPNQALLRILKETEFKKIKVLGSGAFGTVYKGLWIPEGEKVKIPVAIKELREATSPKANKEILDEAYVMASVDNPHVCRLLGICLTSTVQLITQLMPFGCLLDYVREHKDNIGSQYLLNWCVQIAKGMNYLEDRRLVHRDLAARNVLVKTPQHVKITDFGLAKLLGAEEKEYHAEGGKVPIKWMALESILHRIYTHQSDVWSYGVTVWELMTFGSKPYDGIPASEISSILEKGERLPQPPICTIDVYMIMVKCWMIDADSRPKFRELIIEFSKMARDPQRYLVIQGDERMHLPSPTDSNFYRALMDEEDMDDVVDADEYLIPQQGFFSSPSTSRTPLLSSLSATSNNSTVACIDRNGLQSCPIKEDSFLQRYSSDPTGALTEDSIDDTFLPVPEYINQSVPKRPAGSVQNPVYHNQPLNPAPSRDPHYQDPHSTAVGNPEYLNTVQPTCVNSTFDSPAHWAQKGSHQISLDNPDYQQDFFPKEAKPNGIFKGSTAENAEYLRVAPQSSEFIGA

[4] = biological target: T3, Phospho-EGFR (Tyr1068) in H1975 C797S cells (CRISPR-edited EGFR C797S) (Homo sapiens, UniProt P00533, C797S/L858R/T790M); test: HTRF pEGFR/total EGFR in H1975 C797S cells; format: cell-based; settings: ratio pEGFR/total EGFR, compound 3 hours
T3 construct: host or cells: H1975 C797S (CRISPR-edited)
T3 sequence (P00533 25-1210 T790M/C797S/L858R): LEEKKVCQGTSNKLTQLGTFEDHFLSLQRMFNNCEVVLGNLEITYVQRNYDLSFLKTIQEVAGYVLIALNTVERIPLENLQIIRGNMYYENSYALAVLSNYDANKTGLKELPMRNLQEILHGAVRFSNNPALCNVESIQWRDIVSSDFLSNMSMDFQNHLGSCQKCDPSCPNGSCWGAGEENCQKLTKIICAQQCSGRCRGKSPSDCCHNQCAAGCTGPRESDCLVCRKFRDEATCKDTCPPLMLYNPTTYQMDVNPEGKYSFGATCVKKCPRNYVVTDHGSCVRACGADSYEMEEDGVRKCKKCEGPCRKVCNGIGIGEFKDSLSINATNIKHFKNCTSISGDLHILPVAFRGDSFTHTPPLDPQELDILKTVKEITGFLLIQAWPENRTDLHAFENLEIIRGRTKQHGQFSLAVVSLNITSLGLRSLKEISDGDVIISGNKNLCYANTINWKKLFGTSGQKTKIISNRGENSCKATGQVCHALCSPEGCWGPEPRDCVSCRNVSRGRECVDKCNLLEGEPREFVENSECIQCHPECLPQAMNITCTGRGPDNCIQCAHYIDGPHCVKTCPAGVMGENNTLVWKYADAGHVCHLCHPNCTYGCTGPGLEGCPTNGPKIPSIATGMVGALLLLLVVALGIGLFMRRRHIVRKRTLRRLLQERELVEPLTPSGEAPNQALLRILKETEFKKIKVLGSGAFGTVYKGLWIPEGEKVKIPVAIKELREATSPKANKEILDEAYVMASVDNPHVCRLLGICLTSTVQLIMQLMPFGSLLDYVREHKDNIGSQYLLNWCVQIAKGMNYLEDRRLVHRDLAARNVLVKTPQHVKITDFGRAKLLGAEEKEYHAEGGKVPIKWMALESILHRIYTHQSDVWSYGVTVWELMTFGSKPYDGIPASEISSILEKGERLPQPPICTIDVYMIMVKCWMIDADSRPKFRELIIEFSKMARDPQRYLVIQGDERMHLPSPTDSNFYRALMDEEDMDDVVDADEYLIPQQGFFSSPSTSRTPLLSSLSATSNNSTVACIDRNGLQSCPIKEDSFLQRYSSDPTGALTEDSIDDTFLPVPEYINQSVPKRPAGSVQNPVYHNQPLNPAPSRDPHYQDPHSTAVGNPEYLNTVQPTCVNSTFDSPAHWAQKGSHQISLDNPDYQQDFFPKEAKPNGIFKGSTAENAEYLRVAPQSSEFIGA
Procedure, shortened: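 Readout is the HTRF-measured Tyr1068 phospho-EGFR to total EGFR ratio, normalised to the 0 μM control as percent. Preceding this, CRISPR-edited H1975 C797S cells, plated 24 h earlier, were exposed 3 h to duplicate compound doses in medium with 0.1% DMSO, then lysed on a shaker.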

T1 sequence (P00533 25-1210): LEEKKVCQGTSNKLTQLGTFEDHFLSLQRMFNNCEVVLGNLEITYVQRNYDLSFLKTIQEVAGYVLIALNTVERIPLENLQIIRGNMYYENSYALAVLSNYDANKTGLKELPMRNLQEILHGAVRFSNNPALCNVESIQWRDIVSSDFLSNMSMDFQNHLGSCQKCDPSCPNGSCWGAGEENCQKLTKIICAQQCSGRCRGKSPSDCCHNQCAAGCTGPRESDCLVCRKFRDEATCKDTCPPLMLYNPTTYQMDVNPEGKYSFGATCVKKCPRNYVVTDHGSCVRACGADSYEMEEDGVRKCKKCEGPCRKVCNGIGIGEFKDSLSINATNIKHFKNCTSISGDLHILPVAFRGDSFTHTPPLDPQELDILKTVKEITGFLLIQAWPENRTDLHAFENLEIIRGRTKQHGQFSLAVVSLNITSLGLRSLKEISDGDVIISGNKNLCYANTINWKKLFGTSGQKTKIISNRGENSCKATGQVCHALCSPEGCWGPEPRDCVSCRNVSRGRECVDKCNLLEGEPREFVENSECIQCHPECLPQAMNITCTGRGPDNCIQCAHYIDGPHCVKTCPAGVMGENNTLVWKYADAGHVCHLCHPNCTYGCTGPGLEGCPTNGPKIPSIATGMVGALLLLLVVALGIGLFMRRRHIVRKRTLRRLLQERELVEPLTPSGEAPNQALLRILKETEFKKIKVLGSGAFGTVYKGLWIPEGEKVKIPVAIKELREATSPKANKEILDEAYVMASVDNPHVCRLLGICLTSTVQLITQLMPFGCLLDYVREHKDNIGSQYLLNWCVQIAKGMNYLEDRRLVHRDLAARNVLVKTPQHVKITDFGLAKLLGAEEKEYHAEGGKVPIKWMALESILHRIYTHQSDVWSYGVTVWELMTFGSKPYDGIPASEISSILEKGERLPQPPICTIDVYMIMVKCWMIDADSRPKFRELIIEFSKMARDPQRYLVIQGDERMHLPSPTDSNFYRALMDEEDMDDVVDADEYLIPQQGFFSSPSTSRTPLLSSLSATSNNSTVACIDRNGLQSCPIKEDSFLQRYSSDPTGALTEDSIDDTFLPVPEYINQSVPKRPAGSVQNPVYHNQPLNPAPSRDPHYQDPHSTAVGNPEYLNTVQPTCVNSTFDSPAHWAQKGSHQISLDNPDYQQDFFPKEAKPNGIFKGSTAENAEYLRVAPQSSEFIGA

Row | IC50 [1] [µM] | IC50 [2] [µM] | IC50 [3] [µM] | IC50 [4] [µM] | Compound
1 | 1 to 3 | < 0.5 | < 1 | 0.5 to 1 | C#Cc1cc(=O)n(-c2ccc(OC)cc2OC)c2nc(Nc3ccc(N(C)CCN(C)C)cc3)ncc12 [Example 86, 8-(2,4-Dimethoxyphenyl)-2-[(4-{[2-(dimethylamino)ethyl](methyl)amino}phenyl)amino]-5-ethynylpyrido[2,3-d]pyrimidin-7-one]
2 | > 3 | < 0.5 | < 1 | < 0.5 | C#Cc1cc(=O)n([C@H]2CC[C@H](NC(C)=O)CC2)c2nc(Nc3ccc(N4CCN(C)CC4)cc3)ncc12 [Example 87, N-[(1r,4r)-4-(5-Ethynyl-2-{[4-(4-methylpiperazin-1-yl)phenyl]amino}-7-oxopyrido[2,3-d]pyrimidin-8-yl)cyclohexyl]acetamide]
3 | > 3 | > 3 | 1 to 10 | > 3 | C#Cc1cc(=O)n(-c2ccc(NC(=O)C=C)cc2)c2nc(Nc3ccccc3OC)ncc12 [Example 88, N-(4-(5-Ethynyl-2-((2-methoxyphenyl)amino)-7-oxopyrido[2,3-d]pyrimidin-8(7H)-yl)phenyl)acrylamide]
4 | > 3 | < 0.5 | < 1 | < 0.5 | C#Cc1cc(=O)n([C@H]2CC[C@H](NC(=O)c3ccnnc3)CC2)c2nc(Nc3ccc(N4CCN(C)CC4)cc3)ncc12 [Example 89, N-[(1r,4r)-4-(5-Ethynyl-2-{[4-(4-methylpiperazin-1-yl)phenyl]amino}-7-oxopyrido[2,3-d]pyrimidin-8-yl)cyclohexyl]pyridazine-4-carboxamide]
5 | > 3 | 1 to 3 | 1 to 10 | > 3 | C#Cc1cc(=O)n([C@H]2CC[C@@H](NC(=O)CN(C)C)CC2)c2nc(Nc3ccccc3OC)ncc12 [Example 90, 2-(Dimethylamino)-N-[(1s,4s)-4-{5-ethynyl-2-[(2-methoxyphenyl)amino]-7-oxopyrido[2,3-d]pyrimidin-8-yl}cyclohexyl]acetamide]
6 | > 3 | 0.5 to 1 | < 1 | 1 to 3 | C#Cc1cc(=O)n([C@H]2CC[C@@H](NC(=O)Cc3cn[nH]c3)CC2)c2nc(Nc3ccc(N4CCN(C)CC4)cc3)ncc12 [Example 91, 2-(1H-Pyrazol-4-yl)-N-[(1s,4s)-4-(5-ethynyl-2-{[4-(4-methylpiperazin-1-yl)phenyl]amino}-7-oxopyrido[2,3-d]pyrimidin-8-yl)cyclohexyl]acetamide]
7 | > 3 | > 3 | 1 to 10 | > 3 | C#Cc1cc(=O)n([C@H]2CC[C@@H](NC(=O)CCC(=O)OC)CC2)c2nc(Nc3ccc(N4CCN(C)CC4)cc3)ncc12 [Example 92, Methyl 4-(((1s,4s)-4-(5-ethynyl-2-((4-(4-methylpiperazin-1-yl)phenyl)amino)-7-oxopyrido[2,3-d]pyrimidin-8(7H)-yl)cyclohexyl)amino)-4-oxobutanoate]
8 | > 3 | 0.5 to 1 | 1 to 10 | 1 to 3 | C#Cc1cc(=O)n([C@H]2CC[C@@H](NC(=O)CCC(=O)N(C)C)CC2)c2nc(Nc3ccc(N4CCN(C)CC4)cc3)ncc12 [Example 93, N,N-Dimethyl-N′-[(1s,4s)-4-(5-ethynyl-2-{[4-(4-methylpiperazin-1-yl)phenyl]amino}-7-oxopyrido[2,3-d]pyrimidin-8-yl)cyclohexyl]succinamide]
9 | > 3 | 0.5 to 1 | 1 to 10 | 0.5 to 1 | C#Cc1cc(=O)n([C@H]2CC[C@@H](NC(=O)CC(=O)NC)CC2)c2nc(Nc3ccc(N4CCN(C)CC4)cc3)ncc12 [Example 94, N-Methyl-N′-[(1s,4s)-4-(5-ethynyl-2-{[4-(4-methylpiperazin-1-yl)phenyl]amino}-7-oxopyrido[2,3-d]pyrimidin-8-yl)cyclohexyl]propanediamide]
10 | > 3 | < 0.5 | 1 to 10 | < 0.5 | C#Cc1cc(=O)n([C@H]2CC[C@@H](NC(=O)CC(=O)N(C)C)CC2)c2nc(Nc3ccc(N4CCN(C)CC4)cc3)ncc12 [Example 95, N,N-Dimethyl-N′-[(1s,4s)-4-(5-ethynyl-2-{[4-(4-methylpiperazin-1-yl)phenyl]amino}-7-oxopyrido[2,3-d]pyrimidin-8-yl)cyclohexyl]propanediamide]
11 | > 3 | 1 to 3 | < 1 | > 3 | C#Cc1cc(=O)n([C@H]2CC[C@@H](NC(=O)CCN(C)C)CC2)c2nc(Nc3ccc(N4CCN(C)CC4)cc3)ncc12 [Example 96, 3-(Dimethylamino)-N-[(1s,4s)-4-(5-ethynyl-2-{[4-(4-methylpiperazin-1-yl)phenyl]amino}-7-oxopyrido[2,3-d]pyrimidin-8-yl)cyclohexyl]propanamide]
12 | > 3 | 1 to 3 | > 10 | 1 to 3 | C#Cc1cc(=O)n([C@H]2CC[C@@H](NC(=O)CCCN(C)C)CC2)c2nc(Nc3ccc(N4CCN(C)CC4)cc3)ncc12 [Example 97, 4-(Dimethylamino)-N-[(1s,4s)-4-(5-ethynyl-2-{[4-(4-methylpiperazin-1-yl)phenyl]amino}-7-oxopyrido[2,3-d]pyrimidin-8-yl)cyclohexyl]butanamide]
13 | > 3 | > 3 | 1 to 10 | > 3 | C#Cc1cc(=O)n([C@H]2CC[C@@H](NC(=O)CCC(=O)NC)CC2)c2nc(Nc3ccc(N4CCN(C)CC4)cc3)ncc12 [Example 98, N-Methyl-N′-[(1s,4s)-4-(5-ethynyl-2-{[4-(4-methylpiperazin-1-yl)phenyl]amino}-7-oxopyrido[2,3-d]pyrimidin-8-yl)cyclohexyl]succinamide]
14 | > 3 | 1 to 3 | < 1 | > 3 | C#Cc1cc(=O)n([C@H]2CC[C@@H](NC(=O)CC(=O)O)CC2)c2nc(Nc3ccc(N4CCN(C)CC4)cc3)ncc12 [Example 99, 2-{[(1s,4s)-4-(5-Ethynyl-2-{[4-(4-methylpiperazin-1-yl)phenyl]amino}-7-oxopyrido[2,3-d]pyrimidin-8-yl)cyclohexyl]carbamoyl}acetic acid]
15 | 1 to 3 | < 0.5 | 1 to 10 | < 0.5 | C#Cc1cc(=O)n([C@H]2CC[C@@H](NC(=O)CN(C)C)CC2)c2nc(Nc3ccc(N4CCN(C)CC4)cc3)ncc12 [Example 100, 2-(Dimethylamino)-N-[(1s,4s)-4-(5-ethynyl-2-{[4-(4-methylpiperazin-1-yl)phenyl]amino}-7-oxopyrido[2,3-d]pyrimidin-8-yl)cyclohexyl]acetamide]
16 | > 3 | > 3 | > 10 | > 3 | C#Cc1cc(=O)n([C@H]2CC[C@@H](N(C)C(=O)CN(C)C)CC2)c2nc(Nc3ccccc3OC)ncc12 [Example 101, 2-(Dimethylamino)-N-methyl-N-[(1s,4s)-4-{5-ethynyl-2-[(2-methoxyphenyl)amino]-7-oxopyrido[2,3-d]pyrimidin-8-yl}cyclohexyl]acetamide]
17 | 1 to 3 | 1 to 3 | 1 to 10 | 1 to 3 | C#Cc1c(C)c(=O)n([C@H]2CC[C@H](NC(C)=O)CC2)c2nc(Nc3ccc(N4CCN(C)CC4)cc3)ncc12 [Example 102, N-[(1r,4r)-4-(5-Ethynyl-6-methyl-2-{[4-(4-methylpiperazin-1-yl)phenyl]amino}-7-oxopyrido[2,3-d]pyrimidin-8-yl)cyclohexyl]acetamide]
18 | 1 to 3 | 1 to 3 | 1 to 10 | 1 to 3 | C#Cc1c(C)c(=O)n([C@H]2CC[C@@H](NC(C)=O)CC2)c2nc(Nc3ccc(N4CCN(C)CC4)cc3)ncc12 [Example 103, N-[(1s,4s)-4-(5-ethynyl-6-methyl-2-{[4-(4-methylpiperazin-1-yl)phenyl]amino}-7-oxopyrido[2,3-d]pyrimidin-8-yl)cyclohexyl]acetamide]
19 | > 3 | < 0.5 | > 10 | 0.5 to 1 | C#Cc1cc(=O)n(C2CCNC2=O)c2nc(Nc3ccc(N4CCN(C)CC4)cc3)ncc12 (stereo not drawn) [Example 104, 3-(5-ethynyl-2-{[4-(4-methylpiperazin-1-yl)phenyl]amino}-7-oxopyrido[2,3-d]pyrimidin-8-yl)pyrrolidin-2-one]
20 | > 3 | 1 to 3 | > 10 | 1 to 3 | C#Cc1cc(=O)n(C2CCOC2)c2nc(Nc3ccc(N4CCN(C)CC4)cc3)ncc12 (stereo not drawn) [Example 105, 5-ethynyl-2-{[4-(4-methylpiperazin-1-yl)phenyl]amino}-8-(oxolan-3-yl)pyrido[2,3-d]pyrimidin-7-one]
21 | > 3 | 1 to 3 | > 10 | 1 to 3 | C#Cc1cc(=O)n(C2CCNC2)c2nc(Nc3ccc(N4CCN(C)CC4)cc3)ncc12 (stereo not drawn) [Example 106, 5-ethynyl-2-{[4-(4-methylpiperazin-1-yl)phenyl]amino}-8-(pyrrolidin-3-yl)pyrido[2,3-]pyrimidin-7-one]
